Series [1] concerns Candida spp. strains tested. Kind of series: Antifungal activity against the whole panel of strains tested. It is filed as cell-based. To be noted: panel of Table 2, 8–250 µM. The procedure:
Antifungal activity of the tested compounds against yeast cells was determined in 96-well plates as described in the CLSI document M27-A3 [39], with minor modifications (CLSI, 2008). Suspensions of the microorganisms were prepared by taking one loop of pure culture into sterile water and adjusting optical density to 0.1 at 660 nm wavelength and further 50-fold dilution in RPMI 1640 medium, resulting in cell concentration of approximately 2 × 10^4 CFU/mL [21]. Then, 100 μL of cells were added to the wells of a 96-well microtiter plate that contained 16–500 μM tested compounds and 16–500 μM of FLC or 0.2–62 μM AmB. The plates were incubated for 24 h at 37 °C. Each test was performed in triplicate. […] The MIC90 was defined as the lowest concentration of drug showing no visible growth; MIC50 was defined as the concentration that yielded at least 50% growth inhibition when compared with the growth control well.

A further series can be described thus: MTT cytotoxicity assay. To be noted: human. As for the experimental part:
(§1) The assessment of antifungal potential of synthesized agents was carried out using four reference strains (C. albicans ATCC 10231, C. albicans SC5314, C. glabrata DSM […] and C. krusei DSM […]) and six clinical isolates of fluconazole-resistant C. albicans that were provided by the Hospital of Medical University of Gdansk, Poland. Moreover, four C. albicans isolates, assigned as B3, B4, Gu4 and Gu5, were used for investigation whether the synthesized fluconazole derivatives were effectively removed from the yeast cells by the drug efflux transporters, as in the case of fluconazole. These strains were kindly provided by Prof. Joachim Morschhäuser from University of Würzburg (Würzburg, Germany). Strains Gu4 and B3 were fluconazole-sensitive isolates obtained from early infection episodes, while Gu5 and B4 were the corresponding fluconazole-resistant isolates obtained from later episodes in the same patients treated with fluconazole. The lack of susceptibility of the Gu5 strain to fluconazole was a consequence of overexpression of CDR1/2 genes encoding ABC transporters, whereas the resistance of B4 strain was caused by overexpression of the MDR1 gene encoding a membrane transport protein of the major facilitator superfamily (MFS). All of these Candida spp. strains were maintained on YPD agar plates (1% (w/v) yeast extract, 2% (w/v) peptone, 2% (w/v) glucose, 2% (w/v) agar) at 30 °C for 16–24 h. For all of the assays aimed at assessing the antifungal potential of the synthesized agents, the yeasts were cultivated at 37 °C in RPMI 1640 medium (with L-glutamine, without sodium bicarbonate, Sigma-Aldrich, Darmstadt, Germany)) buffered to a pH of 7.0 with 0.165 M morpholinepropanesulfonic acid (MOPS) buffer (Sigma-Aldrich). In this study, we used the human foreskin fibroblast cell line Hs27 (ATCC CRL 1634TM) and the human endothelial cell line HUVEC (C2519A), purchased from Lonza Group AG, (Basel, Switzerland). The Hs27 cells were maintained in cell media consisting of Dulbecco’s modified Eagles medium (DMEM), (Corning, Arizona, USA) with 10% fetal bovine serum (FBS), (Corning, Port Elizabeth, South Africa), 1% penicillin/streptomycin (Sigma-Aldrich Inc., Darmstadt, Germany), and 1% L-glutamine (Corning, Arizona, USA). The human endothelial cell line was maintained in cell media consisting of Endothelial Cell Growth Medium-2 Single Quots Kit (Lonza, USA). Both cell lines were cultured in an incubator at 37 °C and 5% CO2.
(§2) Hs27 and HUVEC mammalian cell lines were cultured as mentioned above. Once cell lines were about 80% confluent, cells were counted by a hemacytometer (Hausser Scientific, Horsham, PA, USA) and plated in 96-well microtiter plates at concentrations of 4500 cells per well for Hs27 and 2000 cells per well for HUVEC. Cells were allowed to attach overnight. […] The final concentration of DMSO was ensured to be around 1% in all experiments. Cells were incubated with studied compounds for 72 h at 37 °C and 5% CO2. After incubation, 20 µL of MTT solution in PBS (4 mg/mL) was added to all wells and incubated further for 3 h at 37 °C. Formed formazan crystals were dissolved in 150 µL DMSO, and absorbance was measured using an Asys UVM340 multi-well plate reader at λ = 540 nm. Cytotoxicity was determined compared to drug-free control. All experiments were performed in biological triplicates.
(In general: Tetrazolium dyes change colour on reduction, which living cells bring about.)

Series [2] has as its system Hs27 cells (human foreskin fibroblast cell line). Kind of series: MTT cytotoxicity assay. The procedure:
as §1, §2

The next series deals with Candida albicans 604. Kind of series: microbe, parasite or virus in culture. To be noted: C. albicans 604 (fluconazole-resistant clinical isolate), RPMI 1640/MOPS pH 7.0, 24 h, 37 °C, triplicate; for MIC50: at least 50% growth inhibition vs growth control; for MIC90: lowest concentration with no visible growth. The essentials: (§3)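 Broth microdilution per CLSI M27-A3 with minor modifications, in RPMI 1640 buffered to pH 7.0 with 0.165 M MOPS, 24 h at 37 °C, about 1% DMSO final, triplicate. B3 is a fluconazole-sensitive early isolate used to assess efflux-transporter removal.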

The next series concerns Candida krusei DSM 11226. In words: microbe, parasite or virus in culture. The following applies: C. krusei DSM 11226, 37 °C; for MIC50 / MIC90: RPMI 1640/MOPS pH 7.0, 24 h, triplicate; for MIC50: at least 50% growth inhibition vs growth control; for MIC90: lowest concentration with no visible growth. The essentials: as §3
Another series relates to Candida albicans Gu5. In words: microbe, parasite or virus in culture. The following applies: C. albicans Gu5 (fluconazole-resistant, CDR1/2 overexpression), RPMI 1640/MOPS pH 7.0, 24 h, 37 °C, triplicate; for MIC50: at least 50% growth inhibition vs growth control; for MIC90: lowest concentration with no visible growth. The essentials:
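Values come from modified CLSI M27-A3 broth microdilution at 37 °C for 24 h. Medium was RPMI 1640 with L-glutamine, no bicarbonate, buffered with 0.165 M MOPS to pH 7.0. Final DMSO was about 1%.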

The test system of series [3] is Candida glabrata DSM 6128. In words: microbe, parasite or virus in culture. The following applies: C. glabrata DSM 6128, RPMI 1640/MOPS pH 7.0, 24 h, 37 °C, triplicate; for MIC50: at least 50% growth inhibition vs growth control; for MIC90: lowest concentration with no visible growth. The essentials:
as §3

Another series has as its system Candida albicans 48. In words: microbe, parasite or virus in culture. To be noted: C. albicans 48 (fluconazole-resistant clinical isolate), RPMI 1640/MOPS pH 7.0, 24 h, 37 °C, triplicate; for MIC50: at least 50% growth inhibition vs growth control; for MIC90: lowest concentration with no visible growth. An outline of the steps:
as §3

The mark [4] stands for this setting: Hs27 cells, MTT, 72 h, 37 °C, 100–1.5 μM, biological triplicates.

A word on the IC50: it is the concentration that inhibits the measured activity by half. Read a high IC50 as weaker potency. Broadly, the MFC is the smallest concentration meeting the test's criterion for killing the fungus. Read a high MFC as weaker fungicidal potency. In general, pIC50 refers to the negative decadic logarithm of the IC50, by convention in mol/L.

pIC50: −log10 of the molar value. ≈ marks a conversion by molar mass, not a printed value. Where two headings read alike, the source gives them in different places. Non-standard residues stand in square brackets, D forms with d. Residues, ends and D or L forms follow the SMILES beside them. *: point of attachment. X1 = O=C(CCCC(=O)*)OC(Cn1cncn1)(Cn1cncn1)c1ccc(F)cc1F; Nle = CCCC[C@H](N)C(=O)O

Take `CSCC[C@H](NC(=O)[C@H](C)NC(=O)[C@H](CCCNC(=N)N)NC(=O)[C@H](CCCCN)NC(=O)[C@H](Cc1c[nH]c2ccccc12)NC(=O)[C@H](CCC(N)=O)NC(=O)[C@H](Cc1ccccc1)NC(=O)[C@H](CS)NC(=O)CCCC(=O)OC(Cn1cncn1)(Cn1cncn1)c1ccc(F)cc1F)C(=O)N[C@@H](CCCNC(=N)N)C(=O)N[C@@H](CCCCN)C(=O)N[C@H](C(=O)N[C@@H](CCCNC(=N)N)C(N)=O)C(C)C` [FLCpOH-HLopt2-NH2] (X1-CFQWKRAMRKVR-NH2): the “antifungal activity against the strains tested, in words” value (“antifungal activity” for short) in series [1] was “moderately or poorly active”. In the series “MTT cytotoxicity assay”, the concentration for half-maximal inhibition (IC50) at 72 h is above 100 µM. Also, the “In vitro cytotoxicity IC90 ± SEM” value in series [2] (setting [4]) is above 100 µM. Also, the MIC50 with Candida albicans 604 is above 250 µM; against Candida krusei DSM 11226, above 250 µM; against Candida albicans Gu5, above 250 µM; in series [3] it was above 250 µM; against Candida albicans 48 it was 250 µM (≈ 503 µg/mL). Also, the MIC90 (against Candida albicans 604; in the series with Candida krusei DSM 11226; in the series on Candida albicans Gu5; in series [3]; against Candida albicans 48) was above 250 µM each time.

Consider `CSCC[C@H](NC(=O)[C@H](CCCNC(=N)N)NC(=O)[C@H](Cc1c[nH]c2ccccc12)NC(=O)[C@H](CCC(N)=O)NC(=O)[C@H](Cc1c[nH]c2ccccc12)NC(=O)[C@H](CCCNC(=N)N)NC(=O)[C@H](CCCNC(=N)N)NC(=O)[C@H](CS)NC(=O)[C@H](CCCCN)NC(=O)[C@H](Cc1ccccc1)NC(=O)CCCC(=O)OC(Cn1cncn1)(Cn1cncn1)c1ccc(F)cc1F)C(N)=O` [FLCpOH-LFacinB(2-11)-NH2] (X1-FKCRRWQWRM-NH2), for which the “antifungal activity” value in series [1] was “moderately or poorly active”. For the same compound, the half-maximal inhibitory concentration (IC50) at 72 h in the series “MTT cytotoxicity assay” is above 100 µM. In addition, the “In vitro cytotoxicity IC90 ± SEM” value in series [2] (setting [4]) was above 100 µM. In addition, the MIC50 is recorded as 190 µM (≈ 361 µg/mL) against Candida albicans 604; 31 µM (≈ 58.8 µg/mL) in the series with Candida krusei DSM 11226; above 250 µM against Candida albicans Gu5; above 250 µM in series [3]; 250 µM (≈ 475 µg/mL) against Candida albicans 48. In addition, the MIC90 against Candida albicans 604 is 250 µM (≈ 475 µg/mL); with Candida krusei DSM 11226 it was 62 µM (≈ 118 µg/mL); in the series on Candida albicans Gu5 it was above 250 µM; in series [3] it was above 250 µM; against Candida albicans 48 it was above 250 µM. The same compound showed a minimum fungicidal concentration (MFC) in the series with Candida krusei DSM 11226 (aliquots plated on YPD agar, 24 h, lowest concentration with no colony growth) of 125 µM (≈ 237 µg/mL).

`CCCC[C@H](NC(=O)CCCC(=O)OC(Cn1cncn1)(Cn1cncn1)c1ccc(F)cc1F)C(=O)N[C@@H](Cc1ccccc1)C(=O)N[C@@H](CCCCN)C(=O)N[C@@H](CS)C(=O)N[C@@H](CCCNC(=N)N)C(=O)N[C@@H](CCCNC(=N)N)C(=O)N[C@@H](Cc1c[nH]c2ccccc12)C(=O)N[C@@H](CCC(N)=O)C(=O)N[C@@H](Cc1c[nH]c2ccccc12)C(=O)N[C@@H](CCCNC(=N)N)C(=O)N[C@@H](CCCC)C(=O)N[C@@H](CCCCN)C(=O)N[C@@H](CCCCN)C(=O)N[C@@H](CC(C)C)C(=O)NCC(N)=O` [FLCpOH-LFacinB[Nle^1,11]-NH2] (X1-[Nle]FKCRRWQWR[Nle]KKLG-NH2): the “antifungal activity” value in series [1] was “moderately or poorly active”. Also, the half-maximal inhibitory concentration (IC50) at 72 h in the series “MTT cytotoxicity assay” was above 100 µM. Further, in series [2] (setting [4]), the “In vitro cytotoxicity IC90 ± SEM” value was above 100 µM. Further, the MIC50 is listed as 45 µM (≈ 109 µg/mL) against Candida albicans 604; 31 µM (≈ 75 µg/mL) against Candida krusei DSM 11226; above 250 µM with Candida albicans Gu5; 250 µM (≈ 605 µg/mL) in series [3]; 250 µM (≈ 605 µg/mL) with Candida albicans 48. Besides, the MIC90 with Candida albicans 604 is 90 µM (≈ 218 µg/mL); in the series on Candida krusei DSM 11226, 62 µM (≈ 150 µg/mL); in the series on Candida albicans Gu5 it was above 250 µM; in series [3] it was above 250 µM; with Candida albicans 48 it was above 250 µM.

On to `O=C(O)CCCC(=O)OC(Cn1cncn1)(Cn1cncn1)c1ccc(F)cc1F` [FLCpOH], for which the “antifungal activity” value in series [1] is given as “did not exert any antifungal activity”. The negative logarithm of the IC50 (pIC50) in series [2] was below 4.00. Also, in series [2], the “In vitro cytotoxicity IC90 ± SEM” value was above 100 µM. For the same compound, the MIC50 (against Candida albicans 604; against Candida krusei DSM 11226; with Candida albicans Gu5; in series [3]; in the series on Candida albicans 48) was above 250 µM each time. For the same compound, the MIC90 (in the series on Candida albicans 604; in the series with Candida krusei DSM 11226; against Candida albicans Gu5; in series [3]; in the series with Candida albicans 48) was above 250 µM throughout.

Source of the values: article PMC9026428, “New Peptide Based Fluconazole Conjugates with Expanded Molecular Targets” (Pharmaceutics, 2022).
